Patent US20260315446A1, “ANTIFUNGAL COMPOUNDS AND USES THEREOF” (priority 2023, published 2026)
Entries after “also recorded” stand apart in the source; their conditions may differ.

Columns and labels:
[1] = test system: IL-2 expression in primary mouse CD4+ T cells (mammalian calcineurin); details: previous studies; cited from earlier work
[2] = test system: Aspergillus fumigatus (akuBKu80 hFKBP12); details: previously shown; cited from earlier work
[3] = In vivo tolerability of JH-FK-05; set-up: species or system mouse; details: daily i.p., up to 60 mg/kg
Method: Based on the in vitro evidence of reduced immunosuppressive activity of JH-FK-05, it was hypothesized that this reduction would translate into reduced immunosuppression in an in vivo model. The murine model for immunosuppression measures the T cell-dependent proliferation of two immune cell subtypes in response to immunization with an antigen. Animals were treated daily via intraperitoneal (i.p.) injection with vehicle, 5 mg/kg FK506, or 60 mg/kg JH-FK-05, beginning on day −1 and ending on day 7. […] On day 0, animals were immunized with NP-OVA to stimulate T cell-dependent signaling that would result in proliferation of T follicular helper (Tfh) cells and germinal center (GC) B cells. Animals were sacrificed on day 7, and the proportions of Tfh and GC B cells in the lymph nodes were measured. […]
Groups of 6 female C57BL/6 mice (Jackson Laboratory) were treated daily by intraperitoneal (i.p.) injection with about 100 μL vehicle, 5 mg/kg FK506, or 60 mg/kg JH-FK-05 beginning on day −1. […] Mice were treated and monitored daily until they were sacrificed on day 7. Draining lymph nodes were harvested on day 7, and the populations of T follicular helper cells and GC B cells were analyzed by flow cytometry. Tfh and GC B cells were measured from T Cell Receptor β (TCRβ^+) CD4^+CD44^hi cells and TCRβ^−CD19^+ cells, respectively.

C. neoformans H99 = test: Survival in intranasal cryptococcosis model (Example 1); format: in vivo, Cryptococcus neoformans in A/J mice; details: 14 days treatment; JH-FK-05 60 mg/kg, fluconazole 12 mg/kg, i.p. daily
Method: To verify if this reduction seen in the fungal burdens of JH-FK-05 and combination-treated animals could translate into a meaningful therapeutic effect, the survival of animals infected via the intranasal route was assessed (FIG. 8A). As in the fungal burden model, these animals received daily treatment for only 14 days. Following the termination of treatment, animals were monitored for signs of decline, lethargy, and ultimately, moribundity. Untreated animals in this model typically survive for about 3 weeks, and similar results were observed here (vehicle treatment median survival, 22 days). Corroborating the results of the fungal burden study, a significant extension of survival for both JH-FK-05 (median survival, 26 days) and fluconazole (median survival, 25 days) was observed.
Female A/J mice (3 to 4 weeks old; Jackson Laboratory) were anesthetized utilizing an isoflurane chamber. While anesthetized, […] of 2×10^6 cells/mL suspension was dripped onto the nares of mice, allowing them to inhale the full inoculum. Treatment began 3 h following infection with i.p. dosing of vehicle, 60 mg/kg JH-FK-05, 12 mg/kg fluconazole, or combination. […] After 14 days, animals were either sacrificed for fungal burden analysis or monitored for health and survival until reaching a humane endpoint. […] Statistical significance was determined using log-rank (Mantel-Cox) tests.

C. neoformans strain H99 [4] = test: Survival during cryptococcal infection (Example 3); format: in vivo, Cryptococcus neoformans in A/J mice
Method: Finally, whether the antifungal efficacy translates into extended survival during infection was assessed. To test the impact of treatment on survival, murine survival was monitored in the cryptococcosis infection model. Following the same protocol of infection and dosing as in the fungal burden experiment, animal survival was monitored following infection and 2 weeks of intraperitoneal dosing. Fluconazole treatment extended median survival from 16 to 27 days.
(§1) C. neoformans inoculum was prepared by growing a 5-mL overnight YPD culture spinning in a tissue culture roller drum at 30° C. Cells were pelleted by centrifugation and washed in sterile PBS three times. Cell density was determined by hemocytometer, and cells were diluted to 2×10^6 cells/mL. Mice (10 to 20 g) were infected with 10^5 cells of C. neoformans H99. For inhalation infection, animals were anesthetized with isoflurane before 50 μL of inoculum was pipetted onto the upright nasal passages of each animal. Following inhalation of the inoculum, animals were monitored for post anesthesia recovery. Treatment of animals began 4 hours post infection and was continued for 14 days. Fungal burden was assessed 24 h after the final dose.
For survival curve analysis, animals were monitored until reaching defined humane end points, including social isolation, hunched posture, weight loss, lack of grooming, and labored breathing, and were then euthanized via CO2 inhalation. For fungal burden analysis, mice were euthanized following 2 weeks of treatment with a designated antifungal, vehicle, or combination. Brain, lung, and spleen were harvested from animals, weighed, and homogenized in sterile PBS using steel beads and a bead beater. Each organ homogenate was serially diluted 10-fold to 10-4 in PBS. One hundred microliters of each dilution was plated on YPD plates supplemented with YPD 50 μg/mL ampicillin and 30 μg/mL chloramphenicol, incubated at 30° C. for 2 days, and assessed for colony-forming units. CFU per organ weight was calculated and plotted using GraphPad Prism 9.

C. neoformans strain H99 [5] = test: Murine cryptococcal infection, brain fungal burden (Example 3); format: in vivo, Cryptococcus neoformans in A/J mice; details: 14 days; fluconazole 6 mg/kg, JH-FK-08 40 mg/kg, i.p. twice per day
Method: In vivo antifungal activity and therapeutic benefit were assayed by investigating the impact of the FK520 analog on organ fungal burden during cryptococcosis. Specifically, the in vivo efficacy of JH-FK-08 on fungal burden was assessed using A/J female mice. Immunodeficient A/J mice were selected in part due to their defect in complement component five and their susceptibility to cryptococcal infection. Treatment groups included vehicle of 10% Kolliphor: ethanol (1:1) in phosphate-buffered saline (PBS), 6 mg/kg fluconazole, 40 mg/kg JH-FK-08, or the fluconazole and JH-FK-08 combination, all given via intraperitoneal (i.p.) injection twice per day beginning at 4 hours post infection. […] Mice were intranasally infected with C. neoformans strain H99, and fungal burden in the lung, spleen, and brain was assessed after 14 days of treatment.
as §1, with “For inhalation infection, animals were anesthetized with isoflurane before 50 μL of inoculum was pipetted onto the upright nasal passages of each animal.” left out, “Treatment of animals began 4 hours post infection and was continued for 14 days.” left out, “dose. […]” for “dose.”

## C=CCC1C=C(C)CC(C)CC(OC)C2OC(O)(C(=O)C(=O)N3CCCCC3C(=O)OC(C(C)=CC3CCC(O)C(OC)C3)C(C)C(O)CC1=O)C(C)CC2OC (centres unmarked) [FK506, reference compound]
[1]
  effect on T cells: cytotoxic and reduce the proliferation of T cells
[2]
  resistance of hFKBP12-expressing strain: completely resistant

## CC[C@@H]1/C=C(\C)C[C@H](C)C[C@H](OC)[C@H]2O[C@@](O)(C(=O)C(=O)N3CCCC[C@H]3C(=O)O[C@H](/C(C)=C/[C@@H]3CC[C@@H](O)[C@H](OC)C3)[C@H](C)[C@@H](O)C/C1=N/NC(C)=O)[C@H](C)C[C@@H]2OC [JH-FK-05]
[3]
  tolerability: tolerated at a dose as high as 60 mg/kg; also recorded: well tolerated by animals throughout the course of treatment; also recorded: animals tolerated JH-FK-05 treatment for the full treatment period
C. neoformans H99
  median survival: 26 days

## CC[C@@H]1/C=C(\C)C[C@H](C)C[C@H](OC)[C@H]2O[C@@](O)(C(=O)C(=O)N3CCCC[C@H]3C(=O)O[C@H](/C(C)=C/C3CC[C@@H](O)[C@H](OC)C3)[C@H](C)[C@@H](O)C/C1=N/NC(=O)OC)[C@H](C)C[C@@H]2OC (some centres unmarked) [JH-FK-08]
C. neoformans strain H99 [4]; 2 weeks twice daily i.p. 40 mg/kg, 40 mg/kg
  survival compared to vehicle/untreated: more than doubled median survival; also recorded: more than double murine survival time
C. neoformans strain H99 [4]; 2 weeks twice daily i.p., fluconazole 6 mg/kg, JH-FK-08 40 mg/kg, vehicle 16 days
  median survival: 33 days
C. neoformans strain H99 [4]; in vivo
  combination effect with fluconazole: additive activity in combination with fluconazole in vivo
C. neoformans strain H99 [5]
  brain fungal burden: no detectable fungal burden
